Measured values taken from a melting point compilation (Tetko et al.; mined from patent text by program, amines drawn as free bases though some values may be those of a salt).

| melting point [°C] | Structure (SMILES) |
| --- | --- |
| 125 to 127 | C=C1OC(=NOC(C)=O)C(c2ccccc2)C(=O)N1C(C)(C)C(=O)Nc1cc(Cl)cc(Cl)c1 (stereo not given) |
| 182 to 185 | O=C1NCCc2[nH]c3c(OCc4ccccc4)cccc3c21 |
| 174 | CCCc1nc(CSc2ccc(CCC(=O)O)cc2)c(C(=O)OCC)n1Cc1cc2c(cc1Cl)OCO2 |
| 155 to 156 | O=C(NC(CO)CO)c1cnccc1C(F)(F)F |
| 112 | CCOC(=O)C1=C(C)NN=C(CC)C1c1ccccc1Cl (stereo not given) |
| 223 | COc1ccc(N2CCN(c3ccc(N4C(=O)C5CCCCN5C4=O)cc3)CC2)cc1 (stereo not given) |
| 161 to 163 | N#CC(C=O)c1ccccc1 (stereo not given) |
| 174 to 177 | CC1=Nc2c(C)nn(C)c2C2=NCCN12 |
| 235 to 238 | Cc1nc2ccc(C)c(Sc3ccncc3)c2c(=O)[nH]1 |
| 122 to 125 | O=C(c1cc(F)ccc1C(F)(F)F)N1CCN(c2ccc(-c3ncc(-c4ccccc4)o3)nn2)CC1 |
| > 270 | O=C(O)C1CCC(c2cc3cccnc3c(=O)[nH]2)CC1 (stereo not given) |
| 160 | CCOC(=O)N1CCC(n2c(=O)[nH]c3cc(Cl)ccc32)CC1 |
| 74 to 76 | COc1cc([N+](=O)[O-])c(F)cc1Br |
| 90 to 93 | CCOC(=O)c1cn(-c2cccnc2)nc1Cl |
| 41 to 42.5 | CC(=O)c1cnc(C(=O)C(C)(C)C)cn1 |
| 111 to 113 | CCC(c1ccc(Cl)nc1)N(Cc1ccc(C(=O)O)cc1)S(=O)(=O)c1ccc(Cl)cc1 (stereo not given) |
| 252 to 253 | CCOC(=O)c1cn(-c2ccc(F)cc2)c2cc(-c3ccncc3)ccc2c1=O |
| 199 to 201 | CC(C)(C)Nc1c([N+](=O)[O-])cc([N+](=O)[O-])c2nc(C(F)F)[nH]c12 |
| 198 to 200 | CC1(C)SC(=NO)NC1=O |
| 140 to 142 | CCCCCS(=O)(=O)NC(=O)CCc1ccc(OCCOC)cc1Oc1ncc(C(F)(F)F)cc1Cl |
| 198 to 199 | CC(C)(C)c1ccc(-c2c(Cl)c(CN3C(=O)CCC3=O)nc3sc4c(c23)CCN(Cc2ccccc2)C4)cc1 |
| 90 to 91 | CN1CCN(C)C1=Nc1ccccc1-c1ccccc1 |
| 134 to 140 | CCCCN1CCOC2c3cccc4[nH]cc(c34)CC21 (stereo not given) |
| 92 to 93 | COC(=O)c1ccc(C#CCc2cccc3c2OCCC3(C)C)cc1O |

| melting point [°C] | Structure (SMILES) |
| --- | --- |
| 70 to 75 | O=C(CN1C(=O)C2(COc3cc(Cl)ccc32)c2ccccc21)Nc1ccccc1F (stereo not given) |
| 226 to 227 | COc1cc(C)c2c(c1C)C(SC)C(=O)N2 (stereo not given) |
| 27 to 30 | CCCCCCCNc1cccc(O)c1 |
| 71.5 to 72.5 | CCOC(=O)C(=CNc1ccc(F)c(Cl)c1)C(=O)OCC |
| 190 | O=C(NC(=O)c1ccccc1Cl)Nc1ccc(C=C(Br)Br)cc1 |
| 120 to 122 | CCCN1CCc2cc(NC(=O)C(=O)N[C@H]3CCOC3O)ccc21 (stereo not given in full) |
| 61 to 62 | OC(/C=C/c1cc(C(F)(F)F)ccc1Cl)(CF)CF |
| 180 to 183 | N#Cc1ccccc1C#CCOCCn1cnc2c(N)nc3ccccc3c21 |
| 126 to 128 | CCCCc1nc2cccc(C(=O)OCOC(=O)C(C)(C)C)c2n1Cc1ccc2nc(-c3ccccc3-c3nnn[nH]3)ncc2c1 |
| 192 | NC(=O)c1cnn2cccc2c1NC1CCC(O)CC1 (stereo not given) |
| 125 to 126 | O=C(c1c(F)cccc1F)N1COCN(c2ccc(Cl)cc2)C1=O |
| 54 to 56 | CCOC(=O)CN1CC(OC)=CC1=O |
| 124 to 126 | COC(=O)[C@@H]1[C@H](NC(=O)Cc2ccccc2)C(=O)N1Cc1ccc(OC)cc1OC (relative stereo) |
| 217 | CCOC(=O)c1cnn(C)c1C(=O)Nc1ccc2nc(-c3cccnc3)nn2c1 |
| > 275 | O=C(O)c1cc(O)c2c(c1)C(=O)c1ccc(F)c(O)c1C2=O |
| 195 to 198 | COc1cccc(/C=C/c2cccc(C(=O)O)c2)c1 |
| 275 | NS(=O)(=O)c1cccc(NC(=O)c2cnn3c(C(F)(F)F)cc(-c4ccc(F)c(F)c4)nc23)c1 |
| 221 to 222 | CSc1nc(P(=O)(c2ccccc2)c2ccccc2)cc(P(=O)(c2ccccc2)c2ccccc2)n1 |
| 218 to 220 | CC(O)(C(=O)O)c1ccc2c(c1)[nH]c1ccc(Cl)cc12 (stereo not given) |
| 140 to 144 | Cc1cc(Br)cnc1CCCCNc1ncc(Cc2ccn(Cc3ccccc3)c(=O)c2)c(=O)[nH]1 |
| 204 to 206 | CN1CC(c2ccc(Cc3ccc(F)cc3)cn2)=C(O)C1=O |
| 47 to 52 | COc1cc(OCCCN(C)C)ccc1C(=O)NN |
| 110 | COc1nnccc1-c1ccccc1OCC(O)CNC(C)(C)C (stereo not given) |
| 169 to 171 | CC(C)COc1c(-c2ccc(S(N)(=O)=O)cc2)cnn(-c2ccc(F)c(F)c2)c1=O |

| melting point [°C] | Structure (SMILES) |
| --- | --- |
| 134 to 138 | COc1ccccc1C(Cn1ccnc1)S(=O)(=O)c1ccc(C(=O)O)cc1 (stereo not given) |
| 133 to 135 | CCOC(=O)Cc1c(C(=O)OCC)c(C)cn1CCO |
| 114 to 115 | CCN(CC)C(Cc1cccs1)=Nc1ccc2sc3ccccc3c2c1 |
| 195 to 198 | COc1cccc(C2Nn3cc(-c4cc(-c5ccc(Cl)cc5Cl)no4)nc3S2)c1 (stereo not given) |
| 261 | CC1SC(=O)NN=C1c1ccc2c(c1)C(=Nc1ccc(N(C)C)cc1)C(=O)N2 (stereo not given) |
| 213 to 215 | COc1cc(C(=O)NC2CCN(CC(F)(F)F)CC2)ccc1Nc1ncc2c(n1)N(C1CCCCC1)CC(F)(F)C(=O)N2C |
| 130 to 133 | O=C(NCCSc1ccccc1)n1cc(F)c(=O)[nH]c1=O |
| 180 to 183 | Cc1noc(NS(=O)(=O)c2sccc2Cc2ccccc2)c1Br |
| 112 to 113 | COc1ccc2[nH]ccc2c1Cl |
| 149 to 151 | CCOC(=O)c1csc(/C=C/C(=O)c2ccc3c(c2)C2(C)C4(C)CCC(C4)C2(C)O3)c1 (stereo not given) |
| 186 | COc1cc(Nc2nccc(Nc3ccccc3)n2)cc(OC)c1OC |
| 134 to 136 | CC(C)C[C@H](NC(=O)[C@H](NC(=O)OCc1ccccc1)C(C)C)C(=O)O |
| 256 to 259 | CN1C(=O)Cc2cc(C3=NNC(=O)C4CCC34)ccc21 (stereo not given) |
| 254 to 256 | O=C(O)c1ccc(C=CC(=O)N2CCc3c([nH]c4ccccc34)C2c2ccc3c(c2)OCO3)cc1 (stereo not given) |
| 195 to 198 | CNC1(C2CCCCC2)C(=O)Nc2ccc(Cl)cc21 (stereo not given) |
| 68 to 69.5 | O=C(c1cccc(F)c1)N1CC2CC2(c2ccccc2)C1 (stereo not given) |
| 246 | O=c1[nH]c2ccc(C(c3ccc(Cl)cc3)n3ccnc3-c3ccccc3)cc2c(Oc2cccc(Cl)c2)c1CO (stereo not given) |
| 165 to 166 | CC(C)OCCOc1ccc(-c2ccc3c(c2)C=C(C(=O)O)CCN3C=O)cc1 |
| 191 | Cc1cc2nnn(C(=O)N3CCOCC3)c2cc1C |
| 235 to 237 | c1cc(N2CCCN(c3ccc(-c4ccc5c(c4)OCO5)cn3)CC2)ncc1-c1ccc2c(c1)OCO2 |
| 95 | COC(=O)C1CC(C(CC(O)C(CC2CCCCC2)NC(=O)C(Cc2c[nH]cn2)NC(=O)C(Cc2ccccc2)NC(=O)OC(C)(C)C)C(C)C)OC1=O (stereo not given) |
| 185 to 186 | COc1ccc(NC(=O)c2ccc(C)cc2O)cc1 |
| 81.9 | C=CCC(C#N)(C#N)Cc1ccc(C#N)cc1 |
| 107 to 109 | CC(C)Oc1cc(-n2c(=O)c(F)c(C(F)(F)C(F)(F)F)n(C)c2=O)c(F)cc1Cl |

| melting point [°C] | Structure (SMILES) |
| --- | --- |
| 55 to 57 | Cc1cc(C(=O)N2CCCC2)ccc1Br |
| 159 to 169 | O=C1C[C@H]2CN(C(=O)c3ccc(NC(=O)c4ccccc4-c4ccccc4)cc3)c3ccccc3C(=O)N2C1 |
| 53.5 to 54.5 | CCC(=O)Oc1ccc(C(=O)c2ccccc2)cc1 |
| 179 to 180 | CCOC(=O)C1=C(C(C)C)Nc2n[nH]cc2C1c1ccccc1OC (stereo not given) |
| 70 to 71 | CCc1ncnc(NC2CCc3cc(OC)ccc3C2)c1Cl (stereo not given) |
| 113 | CCc1csc(-c2ccc(OCCC3CCN(c4ccc(C)nn4)CC3)cc2)n1 |
| 154 | CCN(CC)CCOc1ccc(Nc2ncc3c(n2)N(C)C(=O)N(C(C)C)C3)cc1 |
| 137 to 140 | Cc1c(COc2ccc(-c3ccc(S(=O)(=O)NC(C(=O)O)C(C)C)cc3)cc2)oc2ccc(Br)c(OC(C)C)c12 (stereo not given) |
| 94 to 96 | CCOc1ccc(C(=O)c2ccc(OC)c(Cl)c2Cl)c(F)c1 |
| > 300 | O=C(Nc1ccccc1)Nc1cccc(Nc2ncnc3[nH]cc(C(=O)c4ccccc4)c23)c1 |
| 65 to 66.8 | COC(=O)COc1ccc(N)cc1 |
| 113 | CCOC(=O)COc1ccc(CCCOC(=O)NCC2CC2)c(Oc2ncc(C(F)(F)F)cc2Cl)c1 |
| 153 to 155 | O=C(c1cc(Br)ccc1[N+](=O)[O-])C(Br)C(Br)c1cccc(Br)c1 (stereo not given) |
| 117 | COCCO[C@@H]1c2ccc3[nH]c(C)nc3c2O[C@H](c2ccccc2)[C@H]1O |
| 119 to 120 | CCCNC(=O)N1CC(Oc2ccc(C(F)(F)F)cc2)C1 |
| 113 to 114 | O=S(=O)(c1ccc(Cl)cc1)C(c1ccc(CN2CCCCC2)cn1)c1cc(F)ccc1F (stereo not given) |
| 176 to 178 | N#Cc1csc([N+](=O)[O-])c1Br |
| 150 | O=C(CC(O)c1ccncc1)c1ccccc1O (stereo not given) |
| 143 | N#CC1NC(CO)C(O)C(O)C1O (stereo not given) |
| 238 to 239 | Cn1c(COc2ccc(CC3SC(=O)NC3=O)cc2)nc2ccc(Oc3ccc(NC(=O)c4cccc(Cl)c4)cc3)cc21 (stereo not given) |
| 286 to 288 | CCn1c(=O)c2nc(C=NO)cn2c2ccccc21 |
| 216 to 217 | Nc1nc(N)nc(C2CC3CCC2C3)n1 (stereo not given) |
| 209 to 211 | CC(C)(C)c1ccnc(C(=O)c2[nH]c3ccc(Cl)cc3c2CC(=O)O)c1 |
| 248 to 250 | C#CCn1c(=O)c2cc(Cl)ccc2c2ccc(Cl)cc21 |

| Structure (SMILES) | melting point [°C] |
| --- | --- |
| CNc1nc(N)nc(N)n1 | 269 |
| CC(C)(C)OC(=O)c1ncn2c1CN=C(c1ccccc1)c1cc(Br)ccc1-2 | 222 to 223 |
| CC(=O)c1cn(-c2c(Cl)cc(C(F)(F)F)cc2Cl)nc1C#N | 166 to 168 |
| Cc1ccc(-c2cc(C(=O)O)nn2Cc2ccc(C)c(Cl)c2)cc1 | 108 |
